Target: H1047R PIK3CA enzyme (Homo sapiens, UniProt P42336, H1047R)
Test: ADP-Glo Biochemical PIK3CA Kinase Assay

Sequence of H1047R PIK3CA enzyme (P42336 whole entry H1047R): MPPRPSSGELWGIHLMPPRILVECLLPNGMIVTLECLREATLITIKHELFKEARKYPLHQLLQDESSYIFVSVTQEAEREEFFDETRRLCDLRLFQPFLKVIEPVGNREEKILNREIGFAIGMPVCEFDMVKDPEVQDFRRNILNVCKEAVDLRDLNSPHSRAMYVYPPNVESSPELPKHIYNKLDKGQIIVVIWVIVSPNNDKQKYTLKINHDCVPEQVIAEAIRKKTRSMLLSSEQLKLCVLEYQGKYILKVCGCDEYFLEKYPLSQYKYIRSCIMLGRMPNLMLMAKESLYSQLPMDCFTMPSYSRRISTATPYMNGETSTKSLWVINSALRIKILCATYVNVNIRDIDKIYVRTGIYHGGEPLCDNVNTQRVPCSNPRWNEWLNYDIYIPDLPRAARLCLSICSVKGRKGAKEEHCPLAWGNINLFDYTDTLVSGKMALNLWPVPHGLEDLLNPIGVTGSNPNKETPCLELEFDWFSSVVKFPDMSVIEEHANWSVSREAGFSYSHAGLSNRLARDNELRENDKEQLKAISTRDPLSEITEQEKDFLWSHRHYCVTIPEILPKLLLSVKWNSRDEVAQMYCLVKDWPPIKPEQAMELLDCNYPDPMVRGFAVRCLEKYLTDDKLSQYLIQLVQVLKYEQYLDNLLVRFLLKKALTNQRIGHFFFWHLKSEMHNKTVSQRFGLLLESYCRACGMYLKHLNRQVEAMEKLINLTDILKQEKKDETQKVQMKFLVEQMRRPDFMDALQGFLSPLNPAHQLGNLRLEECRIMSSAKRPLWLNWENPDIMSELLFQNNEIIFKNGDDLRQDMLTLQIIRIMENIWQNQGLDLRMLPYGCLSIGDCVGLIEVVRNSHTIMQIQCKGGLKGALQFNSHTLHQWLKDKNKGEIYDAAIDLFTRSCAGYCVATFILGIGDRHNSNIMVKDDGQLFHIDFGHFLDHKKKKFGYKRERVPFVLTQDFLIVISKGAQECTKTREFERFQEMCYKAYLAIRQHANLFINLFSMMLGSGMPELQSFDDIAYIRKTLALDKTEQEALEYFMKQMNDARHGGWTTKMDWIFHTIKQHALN
Sequence of H1047R PIK3CA enzyme (P27986 whole entry partner): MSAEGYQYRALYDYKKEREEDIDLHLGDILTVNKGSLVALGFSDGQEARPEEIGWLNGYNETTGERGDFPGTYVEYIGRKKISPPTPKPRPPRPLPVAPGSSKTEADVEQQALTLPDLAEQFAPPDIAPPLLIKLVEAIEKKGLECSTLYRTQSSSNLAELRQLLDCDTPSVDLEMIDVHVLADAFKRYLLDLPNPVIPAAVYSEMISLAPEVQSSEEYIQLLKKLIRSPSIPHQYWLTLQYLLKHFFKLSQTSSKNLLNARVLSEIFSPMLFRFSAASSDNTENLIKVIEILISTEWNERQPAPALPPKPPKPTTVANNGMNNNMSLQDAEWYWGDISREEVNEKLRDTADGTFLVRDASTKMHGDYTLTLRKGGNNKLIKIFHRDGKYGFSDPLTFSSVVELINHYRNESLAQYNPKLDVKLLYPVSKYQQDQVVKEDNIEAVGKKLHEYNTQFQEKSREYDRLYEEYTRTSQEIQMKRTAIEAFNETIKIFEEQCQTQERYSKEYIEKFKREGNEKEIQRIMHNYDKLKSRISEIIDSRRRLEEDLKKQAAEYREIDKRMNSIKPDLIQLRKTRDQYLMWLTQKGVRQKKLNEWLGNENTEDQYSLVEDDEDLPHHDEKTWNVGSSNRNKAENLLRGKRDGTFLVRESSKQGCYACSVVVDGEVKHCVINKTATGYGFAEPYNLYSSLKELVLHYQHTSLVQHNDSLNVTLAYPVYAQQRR

| Structure (SMILES) | IC50 [nM] |
| --- | --- |
| O=C(Nc1cc(-c2ccc3ncnn3c2)cc2c1[C@@H](c1cc(F)ccc1Cl)NC2=O)c1cc(F)cc(C(F)F)c1 (stereo in doubt) [Compound I-1172] | 10000 to 100000 |
| O=C(Nc1cc(-c2ccc3ncnn3c2)cc2c1[C@H](c1cc(F)ccc1Cl)NC2=O)c1cc(F)c(F)c(Cl)c1 (stereo in doubt) [Compound I-1173] | ≤ 100 |
| O=C(Nc1cc(-c2ccc3ncnn3c2)cc2c1[C@@H](c1cc(F)ccc1Cl)NC2=O)c1cc(F)c(F)c(Cl)c1 (stereo in doubt) [Compound I-1174] | 1000 to 10000 |
| O=C(Nc1cc(-c2ccc3ncnn3c2)cc2c1[C@@H](c1cc(F)ccc1Cl)NC2=O)c1cc(Cl)cc(Cl)c1 (stereo in doubt) [Compound I-1207] | 1000 to 10000 |
| O=C(Nc1cc(-c2ccc3ncnn3c2)cc2c1[C@H](c1cc(F)ccc1Cl)NC2=O)c1cc(Cl)cc(Cl)c1 (stereo in doubt) [Compound I-1208] | ≤ 100 |
| N#Cc1cnccc1-c1cc(NC(=O)c2cc(F)cc(C(F)(F)F)c2)c2c(c1)C(=O)N[C@@H]2c1cc(F)ccc1Cl (stereo in doubt) [Compound I-1231] | 500 to 1000 |
| N#Cc1cnccc1-c1cc(NC(=O)c2cc(F)cc(C(F)(F)F)c2)c2c(c1)C(=O)N[C@H]2c1cc(F)ccc1Cl (stereo in doubt) [Compound I-1232] | ≤ 100 |
| N#C[C@H]1C[C@H](Oc2cc(NC(=O)c3cc(F)cc(C(F)(F)F)c3)c3c(c2)C(=O)N[C@@H]3c2cc(F)ccc2Cl)C1 (stereo in doubt) [Compound I-1304] | 1000 to 10000 |
| N#C[C@H]1C[C@H](Oc2cc(NC(=O)c3cc(F)cc(C(F)(F)F)c3)c3c(c2)C(=O)N[C@H]3c2cc(F)ccc2Cl)C1 (stereo in doubt) [Compound I-1305] | ≤ 100 |
| O=C1N[C@@H](c2cc(F)ccc2Cl)c2c(NC(=O)N3CC4(CC4)c4cc(F)ccc43)cc(Br)cc21 (stereo in doubt) [Compound I-1509] | ≤ 100 |
| O=C1N[C@H](c2cc(F)ccc2Cl)c2c(NC(=O)N3CC4(CC4)c4cc(F)ccc43)cc(Br)cc21 (stereo in doubt) [Compound I-1510] | 1000 to 10000 |
| O=C(Nc1cc(-c2ccn3ncnc3c2)cc2c1[C@@H](c1cc(F)ccc1Cl)NC2=O)c1cc(F)cc(C(F)(F)F)c1 (stereo in doubt) [Compound I-1596] | 1000 to 10000 |
| O=C(Nc1cc(-c2ccn3ncnc3c2)cc2c1[C@H](c1cc(F)ccc1Cl)NC2=O)c1cc(F)cc(C(F)(F)F)c1 (stereo in doubt) [Compound I-1597] | ≤ 100 |
| O=C(Nc1cc(Cc2ccc3c(c2)CNC3=O)cc2c1[C@H](c1cc(F)ccc1Cl)NC2=O)c1cc(F)cc(C(F)(F)F)c1 (stereo in doubt) [Compound I-1612] | ≤ 100 |
| O=C(Nc1cc(Cc2ccc3c(c2)CNC3=O)cc2c1[C@@H](c1cc(F)ccc1Cl)NC2=O)c1cc(F)cc(C(F)(F)F)c1 (stereo in doubt) [Compound I-1613] | 100 to 500 |
| O=C(Nc1cc(Cn2cccn2)cc2c1[C@@H](c1cc(F)ccc1Cl)NC2=O)c1cc(F)cc(C(F)(F)F)c1 (stereo in doubt) [Compound I-1614] | 100 to 500 |
| O=C(Nc1cc(Cn2cccn2)cc2c1[C@H](c1cc(F)ccc1Cl)NC2=O)c1cc(F)cc(C(F)(F)F)c1 (stereo in doubt) [Compound I-1615] | ≤ 100 |
| O=C(Nc1cc(-c2cn3ncnc3cc2F)cc2c1[C@@H](c1cc(F)ccc1Cl)NC2=O)c1cc(F)cc(C(F)(F)F)c1 (stereo in doubt) [Compound I-1701] | 1000 to 10000 |
| O=C(Nc1cc(-c2cn3ncnc3cc2F)cc2c1[C@H](c1cc(F)ccc1Cl)NC2=O)c1cc(F)cc(C(F)(F)F)c1 (stereo in doubt) [Compound I-1702] | ≤ 100 |
| O=C1N[C@H](c2cc(F)ccc2Cl)c2c(NC(=O)N3CCc4ccccc43)cc(-c3ccc4ncnn4c3)cc21 (stereo in doubt) [Compound I-1716] | 1000 to 10000 |
| N#Cc1cncn1Cc1cc(NC(=O)c2cc(F)cc(C(F)(F)F)c2)c2c(c1)C(=O)N[C@H]2c1cc(F)ccc1Cl (stereo in doubt) [Compound I-1748] | ≤ 100 |

| Structure (SMILES) | IC50 [nM] |
| --- | --- |
| N#Cc1cncn1Cc1cc(NC(=O)c2cc(F)cc(C(F)(F)F)c2)c2c(c1)C(=O)N[C@@H]2c1cc(F)ccc1Cl (stereo in doubt) [Compound I-1749] | 100 to 500 |
| [2H]c1nc2ccc(-c3cc(NC(=O)c4cc(F)cc(C(F)(F)F)c4)c4c(c3)C(=O)N[C@H]4c3cc(F)ccc3Cl)cn2n1 (stereo in doubt) [Compound I-1785] | ≤ 100 |
| [2H]c1nc2ccc(-c3cc(NC(=O)c4cc(F)cc(C(F)(F)F)c4)c4c(c3)C(=O)N[C@@H]4c3cc(F)ccc3Cl)cn2n1 (stereo in doubt) [Compound I-1786] | 100 to 500 |
| O=C1N[C@@H](c2cc(F)ccc2Cl)c2c(NC(=O)c3nsc4ccccc34)cc(-c3ccc4ncnn4c3)cc21 (stereo in doubt) [Compound I-1829] | ≤ 100 |
| O=C1N[C@H](c2cc(F)ccc2Cl)c2c(NC(=O)c3nsc4ccccc34)cc(-c3ccc4ncnn4c3)cc21 (stereo in doubt) [Compound I-1830] | 1000 to 10000 |
| O=C(Nc1ccccc1)Nc1cc(Br)cc2c1[C@H](c1cc(F)ccc1Cl)NC2=O (stereo in doubt) [Compound I-1945] | 10000 to 100000 |
| O=C(Nc1ccccc1)Nc1cc(Br)cc2c1[C@@H](c1cc(F)ccc1Cl)NC2=O (stereo in doubt) [Compound I-1946] | 1000 to 10000 |
| N#CCCc1cc(NC(=O)c2cc(F)cc(C(F)(F)F)c2)c2c(c1)C(=O)N[C@@H]2c1cc(F)ccc1Cl (stereo in doubt) [Compound I-2170] | 10000 to 100000 |
| O=C1N[C@@H](c2cc(F)ccc2Cl)c2c(NC(=O)N3C[C@H](O)c4ccc(F)cc43)cccc21 (stereo in doubt) [Compound I-2172] | 500 to 1000 |
| O=C1N[C@H](c2cc(F)ccc2Cl)c2c(NC(=O)N3C[C@@H](O)c4ccc(F)cc43)cccc21 (stereo in doubt) [Compound I-2173] | 1000 to 10000 |
| O=C1N[C@H](c2cc(F)ccc2Cl)c2c(NC(=O)N3C[C@H](O)c4ccc(F)cc43)cccc21 (stereo in doubt) [Compound I-2174] | 10000 to 100000 |
| Cc1ccccc1C1NC(=O)c2cccc(NC(=O)c3cc(F)cc(C(F)(F)F)c3)c21 (stereo not drawn) [Compound I-2] | 100 to 500 |
| O=C1NCc2c(NC(=O)c3csc4ccccc34)cccc21 [Compound I-3] | 10000 to 100000 |
| Cc1ccccc1[C@H]1NC(=O)c2cccc(NC(=O)c3csc4ccccc34)c21 [Compound I-4] | 500 to 1000 |
| Cc1ccccc1C1NC(=O)c2nccc(NC(=O)c3csc4ccccc34)c21 (stereo not drawn) [Compound I-7] | 100 to 500 |
| O=C1NC(c2ccccc2)c2c(NC(=O)c3csc4ccccc34)cccc21 (stereo not drawn) [Compound I-8] | 100 to 500 |
| O=C1NC(c2ccccc2Cl)c2c(NC(=O)c3csc4ccccc34)ccnc21 (stereo not drawn) [Compound I-9] | 100 to 500 |
| Cc1ccccc1C1NC(=O)Oc2cccc(Br)c21 (stereo not drawn) [Compound I-10] | 10000 to 100000 |
| Cc1ccccc1C1NC(=O)c2cccc(NC(=O)c3cccc4c3CCCO4)c21 (stereo not drawn) [Compound I-11] | 10000 to 100000 |
| Cc1ccccc1C1NC(=O)c2cccc(NC(=O)c3cccc(C(F)(F)F)c3F)c21 (stereo not drawn) [Compound I-12] | 10000 to 100000 |
| COc1cccc(-c2cccc3c2C(c2ccccc2C)NC3=O)n1 (stereo not drawn) [Compound I-14] | 10000 to 100000 |

Source: patent US12581252B2, “Substituted pyrrolo[3,4-b]pyridines as PI3K-α inhibitors” (Relay Therapeutics, Inc., priority 2020, dated 2026)
